Article PMC9399118, “Pentadecanoylcarnitine is a newly discovered endocannabinoid with pleiotropic activities relevant to supporting physical and mental health” (Scientific Reports, 2022)

Key:
[1] = molecular target: T1, serotonin 1A receptor (5-HT1A) (Homo sapiens, UniProt P08908); experiment: cell-based SafetyScan47 dose-response assay, […] doses; conditions: read-out: half-maximal effective concentration
T1 construct: gene HTR1A; full-length receptor expected in commercial panel cell line (Eurofins/DiscoverX SafetyScan47)

[2] = molecular target: T2, histamine H2 receptor (H2R) (Homo sapiens, UniProt P25021); experiment: as above; conditions: read-out: half-maximal inhibitory concentration
T2 construct: gene HRH2; full-length receptor expected in commercial panel cell line (Eurofins/DiscoverX SafetyScan47)

[3] = molecular target: T3, histamine H1 receptor (H1R) (Homo sapiens, UniProt P35367); experiment: as above; conditions: read-out: half-maximal inhibitory concentration
T3 construct: gene HRH1; full-length receptor expected in commercial panel cell line (Eurofins/DiscoverX SafetyScan47)

[4] = molecular target: T4, serotonin 1B receptor (5-HT1B) (Homo sapiens, UniProt P28222); experiment: as above; conditions: read-out: half-maximal effective concentration
T4 construct: gene HTR1B; full-length receptor expected in commercial panel cell line (Eurofins/DiscoverX SafetyScan47)

[5] = molecular target: T5, cannabinoid receptor 2 (CB2) (Homo sapiens, UniProt P34972); experiment: cell-based GPCR cAMP modulation assay, […] doses; conditions: read-out: half-maximal effective concentration
T5 construct: gene CNR2; full-length receptor expected in commercial panel cell line (Eurofins/DiscoverX SafetyScan47)

[6] = molecular target: T6, cannabinoid receptor 1 (CB1) (Homo sapiens, UniProt P21554); experiment: cell-based GPCR cAMP modulation assay, […] doses; conditions: read-out: half-maximal effective concentration
T6 construct: gene CNR1; full-length receptor expected in commercial panel cell line (Eurofins/DiscoverX SafetyScan47)
T6 sequence (P21554 whole entry): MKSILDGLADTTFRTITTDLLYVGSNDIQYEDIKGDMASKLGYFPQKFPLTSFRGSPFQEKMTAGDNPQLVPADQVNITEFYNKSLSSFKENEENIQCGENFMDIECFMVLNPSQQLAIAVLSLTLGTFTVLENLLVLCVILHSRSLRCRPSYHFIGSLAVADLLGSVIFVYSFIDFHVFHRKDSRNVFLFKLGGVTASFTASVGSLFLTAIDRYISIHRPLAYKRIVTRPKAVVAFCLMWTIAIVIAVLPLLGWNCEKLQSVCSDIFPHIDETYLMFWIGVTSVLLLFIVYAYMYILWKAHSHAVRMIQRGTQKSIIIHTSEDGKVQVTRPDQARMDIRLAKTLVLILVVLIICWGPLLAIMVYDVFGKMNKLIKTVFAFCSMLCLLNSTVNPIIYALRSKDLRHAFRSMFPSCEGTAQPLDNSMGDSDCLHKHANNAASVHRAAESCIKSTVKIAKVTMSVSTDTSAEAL

T3 sequence (P35367 whole entry): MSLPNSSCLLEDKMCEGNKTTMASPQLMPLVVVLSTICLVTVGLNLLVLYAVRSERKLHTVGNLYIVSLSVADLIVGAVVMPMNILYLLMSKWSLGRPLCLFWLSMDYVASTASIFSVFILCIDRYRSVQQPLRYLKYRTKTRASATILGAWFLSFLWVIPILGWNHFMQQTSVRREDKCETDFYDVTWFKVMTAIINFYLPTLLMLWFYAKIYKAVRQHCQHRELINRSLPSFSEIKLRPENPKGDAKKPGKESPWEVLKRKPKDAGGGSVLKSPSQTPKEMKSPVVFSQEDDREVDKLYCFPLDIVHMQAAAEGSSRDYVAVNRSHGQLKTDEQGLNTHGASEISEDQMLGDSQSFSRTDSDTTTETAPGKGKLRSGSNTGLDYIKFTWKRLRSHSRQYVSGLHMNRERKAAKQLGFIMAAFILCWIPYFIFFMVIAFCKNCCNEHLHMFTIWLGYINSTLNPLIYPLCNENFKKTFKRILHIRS
T5 sequence (P34972 whole entry): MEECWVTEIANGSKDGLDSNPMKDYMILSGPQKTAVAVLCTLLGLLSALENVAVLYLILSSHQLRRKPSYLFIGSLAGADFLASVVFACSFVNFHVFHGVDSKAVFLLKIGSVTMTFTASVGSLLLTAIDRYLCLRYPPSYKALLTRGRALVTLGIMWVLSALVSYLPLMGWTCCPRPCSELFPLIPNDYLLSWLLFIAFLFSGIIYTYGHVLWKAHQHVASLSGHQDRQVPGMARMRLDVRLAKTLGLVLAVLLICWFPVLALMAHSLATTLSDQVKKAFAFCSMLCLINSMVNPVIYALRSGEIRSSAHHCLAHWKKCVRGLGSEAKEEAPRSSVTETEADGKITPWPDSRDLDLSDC
T2 sequence (P25021 whole entry): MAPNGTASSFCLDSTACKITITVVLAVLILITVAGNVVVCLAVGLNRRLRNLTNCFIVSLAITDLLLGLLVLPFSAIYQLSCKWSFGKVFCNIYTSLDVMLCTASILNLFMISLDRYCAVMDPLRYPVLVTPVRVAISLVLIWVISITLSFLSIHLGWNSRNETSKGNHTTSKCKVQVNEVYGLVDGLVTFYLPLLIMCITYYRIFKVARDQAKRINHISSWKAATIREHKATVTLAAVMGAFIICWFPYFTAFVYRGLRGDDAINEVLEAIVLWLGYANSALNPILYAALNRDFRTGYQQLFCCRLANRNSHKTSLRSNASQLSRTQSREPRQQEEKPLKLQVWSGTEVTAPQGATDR
T1 sequence (P08908 whole entry): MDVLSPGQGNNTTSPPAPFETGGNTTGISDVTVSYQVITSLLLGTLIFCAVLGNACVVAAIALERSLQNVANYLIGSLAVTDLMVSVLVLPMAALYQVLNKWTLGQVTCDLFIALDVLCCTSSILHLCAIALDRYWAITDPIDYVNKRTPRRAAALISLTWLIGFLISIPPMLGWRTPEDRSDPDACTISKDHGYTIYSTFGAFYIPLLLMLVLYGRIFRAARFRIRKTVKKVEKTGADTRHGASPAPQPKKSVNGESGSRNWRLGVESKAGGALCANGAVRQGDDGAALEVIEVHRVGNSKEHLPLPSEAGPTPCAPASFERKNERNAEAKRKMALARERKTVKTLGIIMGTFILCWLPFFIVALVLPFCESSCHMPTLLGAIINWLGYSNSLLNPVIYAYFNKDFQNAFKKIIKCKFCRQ
T4 sequence (P28222 whole entry): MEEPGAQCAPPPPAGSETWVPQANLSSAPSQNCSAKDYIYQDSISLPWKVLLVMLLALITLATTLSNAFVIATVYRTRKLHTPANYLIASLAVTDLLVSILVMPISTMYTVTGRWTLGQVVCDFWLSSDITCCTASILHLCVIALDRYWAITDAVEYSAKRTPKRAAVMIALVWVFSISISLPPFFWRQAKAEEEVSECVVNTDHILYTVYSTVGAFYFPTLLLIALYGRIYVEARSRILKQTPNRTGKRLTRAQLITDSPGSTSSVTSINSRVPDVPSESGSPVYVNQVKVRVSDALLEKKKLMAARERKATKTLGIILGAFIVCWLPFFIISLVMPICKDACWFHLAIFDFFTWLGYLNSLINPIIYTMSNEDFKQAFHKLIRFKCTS

CCCCCCCCCCCCCCC(=O)O[C@H](CC(=O)[O-])C[N+](C)(C)C [pentadecanoylcarnitine]
EC50 [1]: 9.6 µM
IC50 [2]: 6.1 µM
IC50 [3]: 10.9 µM
EC50 [4]: 9.3 µM
EC50 [5]: 3.2 µM
EC50 [6]: 3.7 µM
